Experimental data taken from article PMC5673977, “Transport Deficiency Is the Molecular Basis of Candida albicans Resistance to Antifungal Oligopeptides” (Frontiers in Microbiology, 2017).

Columns and labels:
Format in all cases: cell-based, Candida albicans
[1] = tested on: C. albicans SC5314; assay: Initial peptide uptake rate; conditions: SC 5314; cells grown in YNB-SG; 50 mM potassium phosphate buffer (pH 5.0 or 6.5) + 1% glucose, 30°C, 100 μM peptide, residual peptide by TNBS A420, slope 0- to 10-min
Method: (§1) Yeast cells grown exponentially in the YNB-SG medium were harvested by centrifugation (3000 ×g, 5 min), washed with 50 mM potassium phosphate buffer (pH 5.0 or 6.5), and suspended in the same buffer containing 1% glucose, to a final cell density corresponding to A660 ≅ 1.0. The cell suspension was incubated at 30°C. After 10 min, an oligopeptide solution was added, to give a final concentration of 100 μM. At that moment and at 5 min intervals thereafter, 2 mL samples of the cell suspension were withdrawn, immediately filtered through the Whatman GF/A filters and the filtrates were used to determine the residual peptide concentration. Then, the 1 mL portions of the filtrates were taken and combined with 1.25 mL aliquots of a solution containing 4% Na2B4O7 × 10 H2O and 0.8 mg mL^-1 of 2,4,6-trinitrobenzenesulfonate. The reaction was carried out at 37°C for 30 min. The A420 values were measured and the peptide concentration was read from the appropriate standard curve. Data were plotted as nanomoles of an oligopeptide, taken up by 1 mg (dry weight) of cells versus time. The initial uptake velocities were determined from the slopes of the linear part of the curves, in the 0- to 10-min region.

[2] = tested on: C. albicans opt1Δ; assay: Initial peptide uptake rate; conditions: 50 mM potassium phosphate buffer (pH 5.0 or 6.5) + 1% glucose, 30°C, 100 μM peptide, TNBS A420, slope 0- to 10-min
Method: as §1

[3] = tested on: C. albicans opt1–opt5Δ ptr2Δ ptr22Δ; assay: Initial peptide uptake rate; conditions: 50 mM potassium phosphate buffer (pH 5.0 or 6.5) + 1% glucose, 30°C, 100 μM peptide, TNBS A420, slope 0- to 10-min
Method: as §1

[4] = tested on: C. albicans opt1–opt5Δ; assay: Initial peptide uptake rate; conditions: 50 mM potassium phosphate buffer (pH 5.0 or 6.5) + 1% glucose, 30°C, 100 μM peptide, TNBS A420, slope 0- to 10-min
Method: as §1

[5] = tested on: C. albicans opt2Δ opt3Δ; assay: Initial peptide uptake rate; conditions: 50 mM potassium phosphate buffer (pH 5.0 or 6.5) + 1% glucose, 30°C, 100 μM peptide, TNBS A420, slope 0- to 10-min
Method: as §1

[6] = tested on: C. albicans opt4Δ; assay: Initial peptide uptake rate; conditions: 50 mM potassium phosphate buffer (pH 5.0 or 6.5) + 1% glucose, 30°C, 100 μM peptide, TNBS A420, slope 0- to 10-min
Method: as §1

[7] = tested on: C. albicans opt5Δ; assay: Initial peptide uptake rate; conditions: 50 mM potassium phosphate buffer (pH 5.0 or 6.5) + 1% glucose, 30°C, 100 μM peptide, TNBS A420, slope 0- to 10-min
Method: as §1

[8] = tested on: C. albicans ptr2Δ ptr22Δ; assay: Initial peptide uptake rate; conditions: 50 mM potassium phosphate buffer (pH 5.0 or 6.5) + 1% glucose, 30°C, 100 μM peptide, TNBS A420, slope 0- to 10-min
Method: as §1

[9] = tested on: C. albicans isolates NF1-3 and LNF1-3; assay: Initial peptide uptake rate by isolates resistant to F2/F3; conditions: all six isolates NF1-3, LNF1-3; Figure 4
Method: as §1
It is therefore clear that the diminished sensitivity of all six isolates to F2 and F3 was due to the reduced uptake, most likely by permease(s) of the PTR system.

Row | Substance | Uptake rate ± SD [1] | Uptake rate ± SD [2] | Uptake rate ± SD [3] | Uptake rate ± SD [4] | Uptake rate ± SD [5] | Uptake rate ± SD [6] | Uptake rate ± SD [7] | Uptake rate ± SD [8] | Initial uptake rate relative to wild type SC5314 cells [9]
1 | Ala-Ala [(Ala)2, reference compound] | 5.12 ± 0.32 nmol min^-1 (mg dry weight)^-1 | 4.50 ± 0.36 nmol min^-1 (mg dry weight)^-1 | <0.1 nmol min^-1 (mg dry weight)^-1 | 5.88 ± 0.40 nmol min^-1 (mg dry weight)^-1 | 3.96 ± 0.29 nmol min^-1 (mg dry weight)^-1 | 4.83 ± 0.31 nmol min^-1 (mg dry weight)^-1 | 5.00 ± 0.38 nmol min^-1 (mg dry weight)^-1 | <0.1 nmol min^-1 (mg dry weight)^-1 | remarkably lower
2 | Ala-Ala-Ala [(Ala)3, reference compound] | 5.62 ± 0.33 nmol min^-1 (mg dry weight)^-1 | 4.89 ± 0.28 nmol min^-1 (mg dry weight)^-1 | <0.1 nmol min^-1 (mg dry weight)^-1 | 4.99 ± 0.36 nmol min^-1 (mg dry weight)^-1 | 4.16 ± 0.22 nmol min^-1 (mg dry weight)^-1 | 3.22 ± 0.27 nmol min^-1 (mg dry weight)^-1 | 3.61 ± 0.30 nmol min^-1 (mg dry weight)^-1 | <0.1 nmol min^-1 (mg dry weight)^-1 | lower
3 | Ala-Ala-Ala-Ala [(Ala)4, model alanyl oligopeptide, reference compound] | 3.75 ± 0.19 nmol min^-1 (mg dry weight)^-1 | 0.79 ± 0.09 nmol min^-1 (mg dry weight)^-1 | <0.1 nmol min^-1 (mg dry weight)^-1 | 0.12 ± 0.02 nmol min^-1 (mg dry weight)^-1 | 1.93 ± 0.15 nmol min^-1 (mg dry weight)^-1 | 1.72 ± 0.11 nmol min^-1 (mg dry weight)^-1 | 1.55 ± 0.11 nmol min^-1 (mg dry weight)^-1 | 2.72 ± 0.16 nmol min^-1 (mg dry weight)^-1 | nearly the same or even somewhat higher
